Data on eight compounds can be found in patent US8242274B2, “Triazolopyridine kinase inhibitors useful for the treatment of degenerative and inflammatory diseases” (Galapagos NV, priority 2008, dated 2012).

In assay [1] the target is T1, Recombinant human JAK1 catalytic domain (Homo sapiens, UniProt P23458).
T1 construct: Recombinant human JAK1 catalytic domain (amino acids 850-1154; catalog number 08-144); purchased Carna Biosciences 08-144
The assay can be described thus: JAK1 inhibition assay. Format: biochemical. The following applies: semi-quantitative score. As for the experimental part: Recombinant human JAK1 catalytic domain (amino acids 850-1154; catalog number 08-144) was purchased from Carna Biosciences. 10 ng of JAK1 was incubated with 12.5 μg polyGT substrate (Sigma catalog number P0275) in kinase reaction buffer (15 mM Tris-HCl pH 7.5, 1 mM DTT, 0.01% Tween-20, 10 mM MgCl2, 2 μM non-radioactive ATP, 0.25 μCi 33P-gamma-ATP (GE Healthcare, catalog number AH9968) final concentrations) with or without 5 μL containing test compound or vehicle (DMSO, 1% final concentration), in a total volume of 25 μL, in a polypropylene 96-well plate (Greiner, V-bottom). After 45 min at 30° C., reactions were stopped by adding of 25 μL/well of 150 mM phosphoric acid. All of the terminated kinase reaction was transferred to prewashed (75 mM phosphoric acid) 96 well filter plates (Perkin Elmer catalog number 6005177) using a cell harvester (Perkin Elmer). Plates were washed 6 times with 300 μL per well of a 75 mM phosphoric acid solution and the bottom of the plates was sealed. 40 μL/well of Microscint-20 was added, the top of the plates was sealed and readout was performed using the Topcount (Perkin Elmer). Kinase activity was calculated by subtracting counts per minute (cpm) obtained in the presence of a positive control inhibitor (10 μM staurosporine) from cpm obtained in the presence of vehicle. The ability of a test compound to inhibit this activity was determined as: Percentage inhibition=((cpm determined for sample with test compound present−cpm determined for sample with positive control inhibitor)divided by(cpm determined in the presence of vehicle−cpm determined for sample with positive control inhibitor))*100%.
Dose dilution series were prepared for the compounds enabling the testing of dose-response effects in the JAK1 assay and the calculation of the IC50 for each compound. Each compound was routinely tested at concentration of 20 μM followed by a 1/3 serial dilution, 8 points (20 μM-6.67 μM-2.22 μM-740 nM-247 nM-82 nM-27 nM-9 nM) in a final concentration of 1% DMSO.

Assay [2] addresses T2, Recombinant human JAK3 catalytic domain (Homo sapiens, UniProt P52333).
T2 construct: Recombinant human JAK3 catalytic domain (amino acids 781-1124; catalog number PV3855); purchased Invitrogen PV3855
Description: JAK3 inhibition assay. The assay is classed as biochemical. To be noted: semi-quantitative score. The protocol: Recombinant human JAK3 catalytic domain (amino acids 781-1124; catalog number PV3855) was purchased from Invitrogen. 0.025 mU of JAK3 was incubated with 2.5 μg polyGT substrate (Sigma catalog number P0275) in kinase reaction buffer (25 mM Tris pH 7.5, 0.5 mM EGTA, 0.5 mM Na3VO4, 5 mM b-glycerolphosphate, 0.01% Triton X-100, 1 μM non-radioactive ATP, 0.25 μCi 33P-gamma-ATP (GE Healthcare, catalog number AH9968) final concentrations) with or without 5 μL containing test compound or vehicle (DMSO, 1% final concentration), in a total volume of 25 μL, in a polypropylene 96-well plate (Greiner, V-bottom). After 105 min at 30° C., reactions were stopped by adding of 25 μL/well of 150 mM phosphoric acid. All of the terminated kinase reaction was transferred to prewashed (75 mM phosphoric acid) 96 well filter plates (Perkin Elmer catalog number 6005177) using a cell harvester (Perkin Elmer). Plates were washed 6 times with 300 μL per well of a 75 mM phosphoric acid solution and the bottom of the plates was sealed. 40 μL/well of Microscint-20 was added, the top of the plates was sealed and readout was performed using the Topcount (Perkin Elmer). Kinase activity was calculated by subtracting counts per minute (cpm) obtained in the presence of a positive control inhibitor (10 μM staurosporine) from cpm obtained in the presence of vehicle. The ability of a test compound to inhibit this activity was determined as: Percentage inhibition=((cpm determined for sample with test compound present−cpm determined for sample with positive control inhibitor) divided by (cpm determined in the presence of vehicle−cpm determined for sample with positive control inhibitor))*100%.
Dose dilution series were prepared for the compounds enabling the testing of dose-response effects in the JAK3 assay and the calculation of the IC50 for each compound. Each compound was routinely tested at concentration of 20 μM followed by a 1/3 serial dilution, 8 points (20 μM-6.67 μM-2.22 μM-740 nM-247 nM-82 nM-27 nM-9 nM) in a final concentration of 1% DMSO.

Where only a bound is given, the exact number is not on record here.

T2 sequence (P52333 781-1124): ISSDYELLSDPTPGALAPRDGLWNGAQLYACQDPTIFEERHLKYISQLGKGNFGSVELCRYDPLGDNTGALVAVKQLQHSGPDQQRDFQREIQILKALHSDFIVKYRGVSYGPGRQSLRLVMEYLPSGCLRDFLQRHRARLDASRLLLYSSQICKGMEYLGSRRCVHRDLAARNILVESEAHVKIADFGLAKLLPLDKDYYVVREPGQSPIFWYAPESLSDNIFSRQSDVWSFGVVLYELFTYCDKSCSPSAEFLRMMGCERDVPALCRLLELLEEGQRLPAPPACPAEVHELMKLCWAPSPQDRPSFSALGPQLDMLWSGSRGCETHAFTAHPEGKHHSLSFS
T1 sequence (P23458 850-1154): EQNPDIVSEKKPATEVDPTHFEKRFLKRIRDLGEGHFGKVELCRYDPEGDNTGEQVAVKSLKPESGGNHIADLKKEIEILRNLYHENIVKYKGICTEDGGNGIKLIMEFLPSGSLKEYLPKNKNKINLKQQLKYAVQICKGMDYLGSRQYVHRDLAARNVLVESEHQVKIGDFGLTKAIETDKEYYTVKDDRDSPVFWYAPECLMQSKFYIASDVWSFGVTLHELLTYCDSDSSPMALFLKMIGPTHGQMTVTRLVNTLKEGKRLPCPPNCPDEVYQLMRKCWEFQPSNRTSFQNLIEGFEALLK

Regarding `O=C(Nc1nc2cccc(-c3ccc(OCc4ccccc4)cc3)n2n1)C1CC1` [Compound 12, N-(5-(4-(benzyloxy)phenyl)-[1,2,4]triazolo[1,5-a]pyridin-2-yl)cyclopropanecarboxamide], the results for the IC50 in assay [1] and in assay [2] were 0.1 to 100 nM and 1 to 100 nM, respectively.
In the case of `O=C(Nc1nc2cccc(-c3ccc(OCc4cccnc4)cc3)n2n1)C1CC1` [Compound 36, N-(5-(4-(pyridin-3-ylmethoxy)phenyl)-[1,2,4]triazolo[1,5-a]pyridin-2-yl)cyclopropanecarboxamide], the IC50 in assay [1] was in the range of 0.1 to 100 nM; in assay [2], 101 to 500 nM.
`O=C(Nc1nc2cccc(-c3ccc(OCc4ccccn4)cc3)n2n1)C1CC1` [Compound 37, N-(5-(4-(pyridin-2-ylmethoxy)phenyl)-[1,2,4]triazolo[1,5-a]pyridin-2-yl)cyclopropanecarboxamide]: in assay [1], the IC50 is 0.1 to 100 nM.
For the compound `O=C(Nc1nc2cccc(-c3ccc(OCc4ccccc4)nc3)n2n1)C1CC1` [Compound 57, Cyclopropanecarboxylic acid [5-(6-benzyloxy-pyridin-3-yl)-[1,2,4]triazolo[1,5-a]pyridin-2-yl]-amide], the IC50 is 0.1 to 100 nM in assay [1] and over 501 nM in assay [2].
For the compound `O=C(Nc1nc2cccc(-c3ccc(NCc4ccccc4)cc3)n2n1)C1CC1` [Compound 72, N-(5-(4-(benzylamino)phenyl)-[1,2,4]triazolo[1,5-a]pyridin-2-yl)cyclopropanecarboxamide], the IC50 in assay [1] is 0.1 to 100 nM; in assay [2] it was over 501 nM.
As to `O=C(Nc1nc2cccc(-c3ccc(OCc4ccc(C(F)(F)F)nc4)cc3)n2n1)C1CC1` [Compound 78, N-(5-(4-((6-(trifluoromethyl)pyridin-3-yl)methoxy)phenyl)-[1,2,4]triazolo[1,5-a]pyridin-2-yl)cyclopropanecarboxamide], the IC50 in assay [1] fell in the range of 0.1 to 100 nM.
Same read-out and setting: in the case of `CC(=O)Nc1ccc(COc2ccc(-c3cccc4nc(NC(=O)C5CC5)nn34)cc2)cc1` [Compound 92, N-(5-(4-(4-acetamidobenzyloxy)phenyl)-[1,2,4]triazolo[1,5-a]pyridin-2-yl)cyclopropanecarboxamide] it was 0.1 to 100 nM.
Take `N#Cc1ccc(COc2ccc(-c3cccc4nc(NC(=O)C5CC5)nn34)cc2)cn1` [Compound 176, N-(5-(4-((6-cyanopyridin-3-yl)methoxy)phenyl)-[1,2,4]triazolo[1,5-a]pyridin-2-yl)cyclopropanecarboxamide]: the figures for the IC50 in assay [1] and in assay [2] were 0.1 to 100 nM and 1 to 100 nM, respectively.
